Data as given in ChEMBL document CHEMBL1201862, “PubChem BioAssay data set” (2004).
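Briefly, cells in 96-well plates were exposed to five compound concentrations for 48 h, and endpoints were estimated by linear interpolation. Abbreviation: GI50, concentration required for 50% inhibition of growth.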 Active and inactive are the calls of the source. No stated cut-off is given here; in the data, active = GI50 up to about 1.1 µM and inactive = higher.

Tests used:
Assay in all cases: NCI anticancer screen, dose series, 48 h
[1] = test system: CAKI-1
[2] = test system: OVCAR-8
[3] = test system: CCRF-CEM
[4] = test system: HT-29
[5] = test system: SF-295
[6] = test system: MDA-MB-435
[7] = test system: TK-10
[8] = test system: IGROV-1
[9] = test system: 786-0
[10] = test system: MDA-MB-231
[11] = test system: M14
[12] = test system: NCI-H522
[13] = test system: PC-3
[14] = test system: SK-MEL-5
[15] = test system: HCT-15
[16] = test system: DU-145
[17] = test system: BT-549
[18] = test system: MDA-N
[19] = test system: Hs-578T
[20] = test system: NCI-H226
[21] = test system: SK-MEL-28
[22] = test system: HCT-116
[23] = test system: RPMI-8226
[24] = test system: SNB-19
[25] = test system: SW-620
[26] = test system: LOX IMVI
[27] = test system: SK-OV-3
[28] = test system: UO-31
[29] = test system: ACHN
[30] = test system: Malme-3M
[31] = test system: NCI-H23
[32] = test system: SF-268
[33] = test system: NCI/ADR-RES
[34] = test system: RXF 393
[35] = test system: SN12C
[36] = test system: OVCAR-4
[37] = test system: U-251
[38] = test system: KM12
[39] = test system: UACC-257
[40] = test system: SNB-75
[41] = test system: UACC-62
[42] = test system: SF-539
[43] = test system: OVCAR-3
[44] = test system: OVCAR-5
[45] = test system: NCI-H460
[46] = test system: K562
[47] = test system: SK-MEL-2
[48] = test system: HL-60
[49] = test system: HOP-92
[50] = test system: HCC 2998
[51] = test system: MOLT-4
[52] = test system: EKVX
[53] = test system: MCF7
[54] = test system: HOP-62
[55] = test system: COLO 205
[56] = test system: A549

## Cn1cnc2c(OCC3CCCCC3)nc(N)nc21
[1]
  GI50: > 100 µM (inactive)
[2]
  GI50: > 100 µM (inactive)
[3]
  GI50: > 100 µM (inactive)
[4]
  GI50: 73.8 µM (inactive)
[5]
  GI50: > 100 µM (inactive)
[6]
  GI50: > 100 µM (inactive)
[7]
  GI50: > 100 µM (inactive)
[8]
  GI50: 36.5 µM (inactive)
[9]
  GI50: > 100 µM (inactive)
[10]
  GI50: > 100 µM (inactive)
[11]
  GI50: > 100 µM (inactive)
[12]
  GI50: > 100 µM (inactive)
[13]
  GI50: > 100 µM (inactive)
[14]
  GI50: 70.6 µM (inactive)
[15]
  GI50: > 100 µM
[16]
  GI50: > 100 µM (inactive)
[17]
  GI50: > 100 µM (inactive)
[18]
  GI50: > 100 µM (inactive)
[19]
  GI50: > 100 µM (inactive)
[20]
  GI50: 44.1 µM (inactive)
[21]
  GI50: > 100 µM (inactive)
[22]
  GI50: > 100 µM (inactive)
[23]
  GI50: > 100 µM (inactive)
[24]
  GI50: > 100 µM (inactive)
[25]
  GI50: > 100 µM (inactive)
[26]
  GI50: 66.1 µM (inactive)
[27]
  GI50: > 100 µM (inactive)
[28]
  GI50: 72.9 µM (inactive)
[29]
  GI50: < 0.01 µM (active)
[30]
  GI50: > 100 µM (inactive)
[31]
  GI50: > 100 µM (inactive)
[32]
  GI50: > 100 µM (inactive)
[33]
  GI50: > 100 µM (inactive)
[34]
  GI50: > 100 µM (inactive)
[35]
  GI50: > 100 µM (inactive)
[36]
  GI50: > 100 µM (inactive)
[37]
  GI50: > 100 µM (inactive)
[38]
  GI50: > 100 µM (inactive)
[39]
  GI50: > 100 µM (inactive)
[40]
  GI50: 36.3 µM (inactive)
[41]
  GI50: > 100 µM (inactive)
[42]
  GI50: > 100 µM (inactive)
[43]
  GI50: > 100 µM (inactive)
[44]
  GI50: > 100 µM (inactive)
[45]
  GI50: > 100 µM (inactive)
[46]
  GI50: > 100 µM (inactive)
[47]
  GI50: > 100 µM (inactive)
[48]
  GI50: > 100 µM (inactive)
[49]
  GI50: 32.4 µM (inactive)
[50]
  GI50: > 100 µM (inactive)
[51]
  GI50: > 100 µM (inactive)
[52]
  GI50: > 100 µM (inactive)
[53]
  GI50: 11.7 µM (inactive)
[54]
  GI50: > 100 µM (inactive)
[55]
  GI50: > 100 µM (inactive)
[56]
  GI50: > 100 µM (inactive)
